From patent US20170252298A1, “Performance-Enhancing Nasal Irrigation” (Backed-by-Science, Inc., priority 2014, published 2017)

System: nasal cilia
Test: nasal ciliary beat frequency (CBF), whole field analysis over time
Assay type: cell-based
Set-up: Mean CBF (WFA): unit: Hz
Method: The ATP concentration inside the cell is typically 1-10 millimolar (mM). We started with an ATP concentration of 1 mg/ml based on literature data and from testing done by Dr. James Palmer at University of Pennsylvania on ATP concentration for increasing nasal ciliary beat frequency. […] 1 mg/ml from the below charts=1 mg/ml=1 gram per liter=1/507 g/mol=2 mM. Most intracellular ATP concentrations in animals fall within the range of 0.5-10 mM. [table]

[1] = Plate 2, elapsed 0:08:10, ATP 1 mg/ml
[2] = Plate 2, elapsed 0:08:20, ATP 1 mg/ml
[3] = Plate 2, elapsed 0:08:30, ATP 1 mg/ml
[4] = Plate 2, elapsed 0:08:40, ATP 1 mg/ml
[5] = Plate 2, elapsed 0:08:50, ATP 1 mg/ml
[6] = Plate 2, elapsed 0:09:00, ATP 1 mg/ml
[7] = Plate 2, elapsed 0:09:10, ATP 1 mg/ml
[8] = Plate 2, elapsed 0:09:20, ATP 1 mg/ml
[9] = Plate 2, elapsed 0:09:30, ATP 1 mg/ml
[10] = Plate 2, elapsed 0:09:40, ATP 1 mg/ml
[11] = Plate 2, elapsed 0:09:50, ATP 1 mg/ml
[12] = Plate 2, elapsed 0:10:00, ATP 1 mg/ml
[13] = Plate 2, elapsed 0:10:10, ATP 1 mg/ml
[14] = Plate 2, elapsed 0:10:20, ATP 1 mg/ml
[15] = Plate 2, elapsed 0:10:30, ATP 1 mg/ml
[16] = Plate 2, elapsed 0:10:40, ATP 1 mg/ml
[17] = Plate 2, elapsed 0:10:50, ATP 1 mg/ml
[18] = Plate 2, elapsed 0:11:00, ATP 1 mg/ml
[19] = Plate 2, elapsed 0:11:10, ATP 1 mg/ml
[20] = Plate 2, elapsed 0:15:10, ATP 1 mg/ml
[21] = Plate 2, elapsed 0:15:20, ATP 1 mg/ml
[22] = Plate 2, elapsed 0:15:30, ATP 1 mg/ml
[23] = Plate 2, elapsed 0:15:40, ATP 1 mg/ml
[24] = Plate 2, elapsed 0:15:50, ATP 1 mg/ml
[25] = Plate 2, elapsed 0:16:00, ATP 1 mg/ml
[26] = Plate 2, elapsed 0:16:10, ATP 1 mg/ml
[27] = Plate 2, elapsed 0:16:20, ATP 1 mg/ml
[28] = Plate 2, elapsed 0:16:30, ATP 1 mg/ml
[29] = Plate 2, elapsed 0:16:40, ATP 1 mg/ml
[30] = Plate 2, elapsed 0:16:50, ATP 1 mg/ml
[31] = Plate 2, elapsed 0:17:00, ATP 1 mg/ml
[32] = Plate 2, elapsed 0:17:10, ATP 1 mg/ml
[33] = Plate 2, elapsed 0:17:20, ATP 1 mg/ml
[34] = Plate 2, elapsed 0:17:30, ATP 1 mg/ml
[35] = Plate 2, elapsed 0:17:40, ATP 1 mg/ml
[36] = Plate 2, elapsed 0:17:50, ATP 1 mg/ml
[37] = Plate 2, elapsed 0:18:00, ATP 1 mg/ml
[38] = Plate 2, elapsed 0:18:10, ATP 1 mg/ml
[39] = Plate 2, elapsed 0:18:20, ATP 1 mg/ml
[40] = Plate 2, elapsed 0:18:30, ATP 1 mg/ml
[41] = Plate 2, elapsed 0:18:40, ATP 1 mg/ml
[42] = Plate 2, elapsed 0:18:50, ATP 1 mg/ml
[43] = Plate 2, elapsed 0:19:00, ATP 1 mg/ml
[44] = Plate 2, elapsed 0:19:10, ATP 1 mg/ml
[45] = Plate 2, elapsed 0:19:20, ATP 1 mg/ml
[46] = Plate 2, elapsed 0:19:30, ATP 1 mg/ml
[47] = Plate 2, elapsed 0:19:40, ATP 1 mg/ml
[48] = Plate 2, elapsed 0:19:50, ATP 1 mg/ml
[49] = Plate 2, elapsed 0:20:00, ATP 1 mg/ml

Structure (SMILES): Nc1ncnc2c1ncn2[C@@H]1O[C@H](COP(=O)(O)OP(=O)(O)OP(=O)(O)O)[C@@H](O)[C@H]1O [ATP, adenosine triphosphate]
- Active Area [1]: 37.97%
- Mean CBF (WFA) [1]: 8.3
- Active Area [2]: 38.66%
- Mean CBF (WFA) [2]: 8.29
- Active Area [3]: 39%
- Mean CBF (WFA) [3]: 8.27
- Active Area [4]: 36.32%
- Mean CBF (WFA) [4]: 8.33
- Active Area [5]: 39.05%
- Mean CBF (WFA) [5]: 8.36
- Active Area [6]: 37.12%
- Mean CBF (WFA) [6]: 8.36
- Active Area [7]: 38.83%
- Mean CBF (WFA) [7]: 8.31
- Active Area [8]: 38.39%
- Mean CBF (WFA) [8]: 8.31
- Active Area [9]: 37.54%
- Mean CBF (WFA) [9]: 8.37
- Active Area [10]: 36.11%
- Mean CBF (WFA) [10]: 8.42
- Active Area [11]: 35.79%
- Mean CBF (WFA) [11]: 8.4
- Active Area [12]: 36.58%
- Mean CBF (WFA) [12]: 8.44
- Active Area [13]: 36.77%
- Mean CBF (WFA) [13]: 8.49
- Active Area [14]: 37.58%
- Mean CBF (WFA) [14]: 8.39
- Active Area [15]: 37.33%
- Mean CBF (WFA) [15]: 8.41
- Active Area [16]: 37.82%
- Mean CBF (WFA) [16]: 8.41
- Active Area [17]: 35.58%
- Mean CBF (WFA) [17]: 8.37
- Active Area [18]: 38.06%
- Mean CBF (WFA) [18]: 8.43
- Active Area [19]: 38.67%
- Mean CBF (WFA) [19]: 8.42
- Active Area [20]: 41.31%
- Mean CBF (WFA) [20]: 8.44
- Active Area [21]: 41.96%
- Mean CBF (WFA) [21]: 8.48
- Active Area [22]: 39.32%
- Mean CBF (WFA) [22]: 8.43
- Active Area [23]: 39.9%
- Mean CBF (WFA) [23]: 8.44
- Active Area [24]: 40.84%
- Mean CBF (WFA) [24]: 8.41
- Active Area [25]: 41.99%
- Mean CBF (WFA) [25]: 8.36
- Active Area [26]: 42.7%
- Mean CBF (WFA) [26]: 8.37
- Active Area [27]: 43.14%
- Mean CBF (WFA) [27]: 8.39
- Active Area [28]: 42.52%
- Mean CBF (WFA) [28]: 8.36
- Active Area [29]: 42.09%
- Mean CBF (WFA) [29]: 8.38
- Active Area [30]: 42.85%
- Mean CBF (WFA) [30]: 8.33
- Active Area [31]: 38.98%
- Mean CBF (WFA) [31]: 8.32
- Active Area [32]: 41.85%
- Mean CBF (WFA) [32]: 8.27
- Active Area [33]: 41.7%
- Mean CBF (WFA) [33]: 8.24
- Active Area [34]: 42.78%
- Mean CBF (WFA) [34]: 8.29
- Active Area [35]: 40.85%
- Mean CBF (WFA) [35]: 8.32
- Active Area [36]: 42.27%
- Mean CBF (WFA) [36]: 8.27
- Active Area [37]: 38.92%
- Mean CBF (WFA) [37]: 8.27
- Active Area [38]: 40.18%
- Mean CBF (WFA) [38]: 8.29
- Active Area [39]: 42.69%
- Mean CBF (WFA) [39]: 8.27
- Active Area [40]: 42.91%
- Mean CBF (WFA) [40]: 8.27
- Active Area [41]: 41.71%
- Mean CBF (WFA) [41]: 8.24
- Active Area [42]: 42.85%
- Mean CBF (WFA) [42]: 8.28
- Active Area [43]: 43.3%
- Mean CBF (WFA) [43]: 8.24
- Active Area [44]: 42.12%
- Mean CBF (WFA) [44]: 8.22
- Active Area [45]: 42.33%
- Mean CBF (WFA) [45]: 8.25
- Active Area [46]: 43.77%
- Mean CBF (WFA) [46]: 8.23
- Active Area [47]: 44.6%
- Mean CBF (WFA) [47]: 8.25
- Active Area [48]: 43.27%
- Mean CBF (WFA) [48]: 8.24
- Active Area [49]: 43.87%
- Mean CBF (WFA) [49]: 8.26
- ATP concentration sufficient to give an increase in ciliary beat frequency (testing by Dr. James Palmer, University of Pennsylvania): 1 mg/mL
